Where a name gives a salt, the structure may show the parent alone.
Row | Compound | melting point [°C]
1 | Cc1cccc(C)c1C(CN1CCCCC1)OCc1ccc(Br)cc1 (stereo not shown) (as salt: hydrochloride) [Example 39, 1-[2-(4-bromobenzyloxy)-2-(2,6-dimethylphenyl)ethyl]piperidine] | 152 to 154
2 | Cc1cccc(C)c1C(C[N+](C)(C)C)OCCCc1c(F)cccc1F.[I-] (stereo not shown) | 190
3 | Cc1cccc(C)c1C(CN1CCCCC1)OCc1c(F)cccc1F (stereo not shown) (as salt: hydrochloride) [Example 42, 1-[2-(2,6-difluorobenzyloxy)-2-(2,6-dimethylphenyl)ethyl]piperidine] | 183 to 185
4 | C=C(C)C1CC=C(CNCC(OCCCc2c(F)cccc2F)c2c(C)cccc2C)CC1 (stereo not shown) (as salt: hydrochloride) [Example 25, N-[2-[3-(2,6-difluorophenyl)propoxy]-2-(2,6-dimethylphenyl)ethyl]-N-(4-isopropenylcyclohexen-1-ylmethyl)amine] | 155
5 | Cc1cccc(C)c1C(CN1CCCCC1)NCCCc1c(F)cccc1F (stereo not shown) (as salt: hydrochloride) [Example 35, [3-(2,6-difluorophenyl)propyl]-[1-(2,6-dimethylphenyl)-2-piperidin-1-ylethyl]amine] | 145
6 | Cc1cccc(C)c1C(CN1CCCCC1)OCCCc1c(F)cccc1F (stereo not shown) (as salt: hydrochloride) [Example 14, 1-[2-[3-(2,6-difluorophenyl)propoxy]-2-(2,6-dimethylphenyl)ethyl]piperidine] | > 200
7 | Cc1cccc(C)c1C(CN1CCCCC1)OCc1ccccc1 (stereo not shown) (as salt: hydrochloride) [Example 38, 1-[2-benzyloxy-2-(2,6-dimethylphenyl)ethyl]piperidine] | 197 to 199
8 | Cc1cccc(C)c1C(CN(Cc1ccccc1)Cc1ccccc1)OCCCc1c(F)cccc1F (stereo not shown) (as salt: hydrochloride) [Example 24, N-[2-[3-(2,6-difluorophenyl)propoxy]-2-(2,6-dimethylphenyl)ethyl]-N,N-bis(benzyl)amine] | 108
9 | Cc1cccc(C)c1C(CN1CCCCC1)OCc1ccc(Br)cc1Cl (stereo not shown) (as salt: hydrochloride) [Example 43, 1-[2-(2-chloro-4-bromobenzyloxy)-2-(2,6-dimethylphenyl)ethyl]piperidine] | 222 to 224
10 | Cc1cccc(C)c1C(CN1CCCCC1)OCc1c(Cl)cccc1Cl (stereo not shown) (as salt: hydrochloride) [Example 41, 1-[2-(2,6-dichlorobenzyloxy)-2-(2,6-dimethylphenyl)ethyl]piperidine] | 225 to 227
11 | Cc1cccc(C)c1C(CNCc1ccccc1)OCCCc1c(F)cccc1F (stereo not shown) (as salt: hydrochloride) [Example 23, N-[2-[3-(2,6-difluorophenyl)propoxy]-2-(2,6-dimethylphenyl)ethyl]-N-benzylamine] | 176
12 | Cc1cccc(C)c1C(CN(C)CC1CC1)OCCCc1c(F)cccc1F (stereo not shown) [Example 10, N-[2-[3-(2,6-difluorophenyl)propoxy]-2-(2,6-dimethylphenyl)ethyl]-N-cyclopropylmethyl-N-methylamine] | 78
13 | Cc1cccc(C)c1C(CN1CCCCC1)OCc1ccc(Cl)cc1 (stereo not shown) (as salt: hydrochloride) [Example 40, 1-[2-(4-chlorobenzyloxy)-2-(2,6-dimethylphenyl)ethyl]piperidine] | 134 to 135

From US6770636B2, “Phenyl-and phenylalkyl-substituted ethanolamines and ethylenediamines” (Boehringer Ingelheim Pharma KG, priority 2000, dated 2004)
